Reference: ChEMBL document CHEMBL4342404, “Anti-cholinesterase hybrids as multi-target-directed ligands against Alzheimer's disease (1998-2018)” (Bioorg Med Chem, 2019)
pIC50: −log10 of the molar value.

target: Cholinesterase (Homo sapiens, UniProt P06276); assay: Inhibition of human serum butyrylcholinesterase using butyrylthiocholine iodide as substrate preincubated for 20 mins followed by substrate addition by Ellman's method; settings: not given
Sequence (P06276 whole entry): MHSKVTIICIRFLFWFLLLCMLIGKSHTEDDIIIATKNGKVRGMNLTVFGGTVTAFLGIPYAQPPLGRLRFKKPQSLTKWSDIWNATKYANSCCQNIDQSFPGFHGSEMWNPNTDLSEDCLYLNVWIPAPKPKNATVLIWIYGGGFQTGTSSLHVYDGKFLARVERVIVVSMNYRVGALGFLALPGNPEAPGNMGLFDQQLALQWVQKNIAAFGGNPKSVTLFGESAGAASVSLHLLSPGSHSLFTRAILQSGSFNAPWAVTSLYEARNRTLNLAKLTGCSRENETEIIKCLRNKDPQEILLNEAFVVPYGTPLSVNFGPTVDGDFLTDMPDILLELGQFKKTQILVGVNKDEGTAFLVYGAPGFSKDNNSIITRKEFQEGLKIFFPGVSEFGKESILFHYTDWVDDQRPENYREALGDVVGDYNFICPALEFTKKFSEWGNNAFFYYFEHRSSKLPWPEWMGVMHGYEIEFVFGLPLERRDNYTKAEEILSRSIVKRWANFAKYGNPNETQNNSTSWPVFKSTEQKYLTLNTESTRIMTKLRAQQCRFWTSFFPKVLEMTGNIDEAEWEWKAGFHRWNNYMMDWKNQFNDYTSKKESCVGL

Row | Compound | pIC50
1 | c1ccc2c(NCCSSCCNc3c4c(nc5ccccc35)CCCC4)c3c(nc2c1)CCCC3 | 8.25

species: Homo sapiens; assay: Selectivity index, ratio of IC50 for human plasma butyrylcholinesterase to IC50 for human erythrocyte acetylcholinesterase; settings: not given

Row | Compound | Selectivity Index
2 | COc1cc2oc(-c3ccc(NCCCNc4c5c(nc6cc(Cl)ccc46)CCCC5)cc3)cc(=O)c2c(OC)c1OC | 92
3 | COc1cc2oc(-c3ccc(NCCNc4c5c(nc6cc(Cl)ccc46)CCCC5)cc3)cc(=O)c2c(OC)c1OC | 742
4 | COc1cc2oc(-c3ccc(NCCCCNc4c5c(nc6cc(Cl)ccc46)CCCC5)cc3)cc(=O)c2c(OC)c1OC | 1690

target: T1, Acetylcholinesterase (Rattus norvegicus, UniProt P37136); assay: Antagonist activity at Acetylcholinesterase in Sprague-Dawley rat phrenic nerve-hemidiaphragm assessed as reversal of d-tubocurarine induced neuromuscular blockade after 15 mins; settings: read-out: I50
T1 sequence (P37136 whole entry): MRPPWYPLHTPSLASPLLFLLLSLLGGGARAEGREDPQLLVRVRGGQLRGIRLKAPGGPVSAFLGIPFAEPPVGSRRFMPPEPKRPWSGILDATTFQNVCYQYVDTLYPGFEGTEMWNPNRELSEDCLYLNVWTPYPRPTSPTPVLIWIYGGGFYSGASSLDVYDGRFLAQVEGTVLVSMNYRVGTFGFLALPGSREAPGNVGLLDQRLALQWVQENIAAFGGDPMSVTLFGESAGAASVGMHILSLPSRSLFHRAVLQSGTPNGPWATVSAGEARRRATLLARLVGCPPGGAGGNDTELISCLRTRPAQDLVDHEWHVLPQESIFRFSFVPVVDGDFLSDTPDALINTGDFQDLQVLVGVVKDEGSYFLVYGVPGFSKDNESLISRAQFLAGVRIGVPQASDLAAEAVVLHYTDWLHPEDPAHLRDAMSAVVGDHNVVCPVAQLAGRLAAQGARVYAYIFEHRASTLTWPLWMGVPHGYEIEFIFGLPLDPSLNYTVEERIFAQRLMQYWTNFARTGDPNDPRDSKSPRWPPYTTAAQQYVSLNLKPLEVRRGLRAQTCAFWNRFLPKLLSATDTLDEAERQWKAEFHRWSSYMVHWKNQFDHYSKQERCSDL

Row | Compound | pIC50
5 | CC1=CC2Cc3nc4cc(Cl)ccc4c(N)c3C(C1)C2 (single isomer, unassigned; (-)) [HUPRINE Y] | 7.50
6 | CC1=C[C@@H]2Cc3nc4cc(F)ccc4c(N)c3[C@H](C1)C2 | 7.31
7 | CCC1=CC2Cc3nc4ccccc4c(N)c3C(C1)C2 (racemic) | 7.08
8 | CC1=CC2Cc3nc4cc(Cl)ccc4c(N)c3C(C1)C2 (racemic) [HUPRINE Y] | 7.07
9 | CC1=CC2Cc3nc4ccccc4c(N)c3C(C1)C2 (racemic) | 6.75

target: Acetylcholinesterase (Homo sapiens, UniProt P22303); assay: Potency index, ratio of tacrine IC50 for human erythrocyte acetylcholinesterase to compound IC50 for homogenate acetylcholinesterase; settings: not given
Sequence (P22303 whole entry): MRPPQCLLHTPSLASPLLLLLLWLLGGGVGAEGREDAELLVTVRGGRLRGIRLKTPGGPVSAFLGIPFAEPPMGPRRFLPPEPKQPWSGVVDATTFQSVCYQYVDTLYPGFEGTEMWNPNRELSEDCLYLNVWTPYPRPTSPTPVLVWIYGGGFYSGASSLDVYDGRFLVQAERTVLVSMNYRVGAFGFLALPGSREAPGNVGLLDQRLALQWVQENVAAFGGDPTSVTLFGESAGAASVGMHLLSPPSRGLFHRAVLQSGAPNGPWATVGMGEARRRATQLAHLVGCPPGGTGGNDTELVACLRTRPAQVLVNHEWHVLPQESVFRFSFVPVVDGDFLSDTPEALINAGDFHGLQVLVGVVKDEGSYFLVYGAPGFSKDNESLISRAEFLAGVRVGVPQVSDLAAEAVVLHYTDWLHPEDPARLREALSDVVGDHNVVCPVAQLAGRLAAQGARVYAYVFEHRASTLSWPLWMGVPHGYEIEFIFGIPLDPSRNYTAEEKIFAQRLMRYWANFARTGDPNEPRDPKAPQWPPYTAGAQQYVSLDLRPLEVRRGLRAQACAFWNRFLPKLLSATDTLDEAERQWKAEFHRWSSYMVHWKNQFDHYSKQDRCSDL

Row | Compound | Ratio IC50
10 | COc1ccc2[nH]cc(CCNC(=O)CCCCCCCNc3c4c(nc5ccccc35)CCCC4)c2c1 | 70 to 43000
11 | O=C(CCCCCNc1c2c(nc3c(Cl)cccc13)CCCC2)NCCc1c[nH]c2ccccc12 | 70 to 43000
12 | O=C(CCCCCCNc1c2c(nc3cc(Cl)ccc13)CCCC2)NCCc1c[nH]c2ccccc12 | 70 to 43000
13 | O=C(CCCCCNc1c2c(nc3ccccc13)CCCC2)NCCc1c[nH]c2ccccc12 | 70 to 43000
14 | S=C(CCCCCCCNc1c2c(nc3ccccc13)CCCC2)NCCc1c[nH]c2ccccc12 | 70 to 43000
15 | O=C(CCCCCNc1c2c(nc3cc(Cl)ccc13)CCCC2)NCCc1c[nH]c2ccccc12 | 70 to 43000
16 | COc1ccc2[nH]cc(CCNC(=O)CCCCCNc3c4c(nc5cccc(Cl)c35)CCCC4)c2c1 | 70 to 43000
17 | COc1ccc2[nH]cc(CCNC(=O)CCCCCNc3c4c(nc5ccccc35)CCCC4)c2c1 | 70 to 43000
18 | S=C(CCCCCNc1c2c(nc3ccccc13)CCCC2)NCCc1c[nH]c2ccccc12 | 70 to 43000
19 | O=C(CCCCCCNc1c2c(nc3ccccc13)CCCC2)NCCc1c[nH]c2ccccc12 | 70 to 43000
20 | O=C(CCCCCCCNc1c2c(nc3cc(Cl)cc(Cl)c13)CCCC2)NCCc1c[nH]c2ccccc12 | 70 to 43000
21 | COc1ccc2[nH]cc(CCNC(=O)CCCCCNc3c4c(nc5cc(Cl)ccc35)CCCC4)c2c1 | 70 to 43000
22 | COc1ccc2[nH]cc(CCNC(=O)CCCCNc3c4c(nc5ccccc35)CCCC4)c2c1 | 70 to 43000
23 | COc1ccc2[nH]cc(CCNC(=O)CCCCCCNc3c4c(nc5cc(Cl)cc(Cl)c35)CCCC4)c2c1 | 70 to 43000
24 | O=C(CCCCNc1c2c(nc3ccccc13)CCCC2)NCCc1c[nH]c2ccccc12 | 70 to 43000
25 | O=C(CCCCCNc1c2c(nc3cc(Cl)cc(Cl)c13)CCCC2)NCCc1c[nH]c2ccccc12 | 70 to 43000
26 | O=C(CCCCCCCNc1c2c(nc3ccccc13)CCCC2)NCCc1c[nH]c2ccc(O)cc12 | 70 to 43000
27 | O=C(CCCCCNc1c2c(nc3ccc(F)cc13)CCCC2)NCCc1c[nH]c2ccccc12 | 70 to 43000
28 | COc1ccc2[nH]cc(CCNC(=O)CCCCCNc3c4c(nc5cc(Cl)cc(Cl)c35)CCCC4)c2c1 | 70 to 43000
29 | COc1ccc2[nH]cc(CCNC(=O)CCCCCCNc3c4c(nc5ccccc35)CCCC4)c2c1 | 70 to 43000
30 | O=C(CCCCCCNc1c2c(nc3cc(Cl)cc(Cl)c13)CCCC2)NCCc1c[nH]c2ccccc12 | 70 to 43000
31 | O=C(CCCCCNc1c2c(nc3ccccc13)CCCC2)NCCc1c[nH]c2ccc(O)cc12 | 70 to 43000
32 | O=C(CCCCCCCNc1c2c(nc3ccccc13)CCCC2)NCCc1c[nH]c2ccccc12 | 70 to 43000

tested on: not listed separately; assay: Antioxidant activity of compound by ORAC-FL assay relative to trolox; format: functional; settings: not given

Row | Compound | Ratio
33 | COc1cc(/C=C/C(=O)N(CCCC2CCN(Cc3ccccc3)CC2)CC(=O)Nc2ccc3ccccc3c2)ccc1O | 4.8 to 8.71
34 | COc1cc(/C=C/C(=O)N(CC(=O)NCc2ccccc2)C2CCN(Cc3ccccc3)CC2)ccc1O | 4.8 to 8.71
35 | COc1ccc2[nH]cc(CCNC(=O)CN(C(=O)/C=C/c3ccc(O)c(OC)c3)C3CCN(Cc4ccccc4)CC3)c2c1 | 4.8 to 8.71
36 | COc1cc(/C=C/C(=O)N(CCC2CCN(Cc3ccccc3)CC2)CC(=O)Nc2ccc3ccccc3c2)ccc1O | 4.8 to 8.71
37 | COc1cc(/C=C/C(=O)N(CCCC2CCN(Cc3ccccc3)CC2)CC(=O)Nc2c(C)cccc2Cl)ccc1O | 4.8 to 8.71
38 | COc1cc(/C=C/C(=O)N(CCC2CCN(Cc3ccccc3)CC2)CC(=O)NCc2ccccc2)ccc1O | 4.8 to 8.71
39 | COc1cc(/C=C/C(=O)N(CCCC2CCN(Cc3ccccc3)CC2)CC(=O)NCc2ccccc2)ccc1O | 4.8 to 8.71
40 | COc1cc(/C=C/C(=O)N(CC(=O)Nc2c(C)cccc2Cl)C2CCN(Cc3ccccc3)CC2)ccc1O | 4.8 to 8.71
41 | COc1cc(/C=C/C(=O)N(CCC2CCN(Cc3ccccc3)CC2)CC(=O)Nc2c(C)cccc2Cl)ccc1O | 4.8 to 8.71
42 | COc1cc(/C=C/C(=O)N(CC(=O)Nc2ccc3ccccc3c2)C2CCN(Cc3ccccc3)CC2)ccc1O | 4.8 to 8.71

target: T2, Acetylcholinesterase (Mus musculus, UniProt P21836); assay: Inhibition of mouse brain acetylcholinesterase by Ellman's method; settings: not given
T2 sequence (P21836 whole entry): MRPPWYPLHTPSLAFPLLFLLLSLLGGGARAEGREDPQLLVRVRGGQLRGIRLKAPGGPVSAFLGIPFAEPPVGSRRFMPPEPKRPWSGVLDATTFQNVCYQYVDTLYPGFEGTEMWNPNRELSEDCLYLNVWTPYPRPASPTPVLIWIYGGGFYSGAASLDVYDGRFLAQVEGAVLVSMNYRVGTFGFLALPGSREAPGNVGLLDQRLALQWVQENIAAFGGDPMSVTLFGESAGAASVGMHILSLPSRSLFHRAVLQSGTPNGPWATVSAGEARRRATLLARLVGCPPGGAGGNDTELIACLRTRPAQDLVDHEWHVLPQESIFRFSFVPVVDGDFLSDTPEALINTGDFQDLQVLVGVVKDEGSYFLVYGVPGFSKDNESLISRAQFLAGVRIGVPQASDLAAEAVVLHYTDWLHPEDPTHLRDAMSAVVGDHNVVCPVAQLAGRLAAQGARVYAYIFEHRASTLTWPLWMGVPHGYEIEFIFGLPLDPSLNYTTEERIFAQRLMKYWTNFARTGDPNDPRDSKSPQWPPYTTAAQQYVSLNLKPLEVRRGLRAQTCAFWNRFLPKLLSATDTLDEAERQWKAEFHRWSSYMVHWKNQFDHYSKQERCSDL

Row | Compound | pIC50
43 | CNC(CCOc1ccc([N+](=O)[O-])cc1)c1ccc(OC(=O)N(C)C)cc1 (racemic) | 6.90
44 | CN[C@H](CCOc1ccc([N+](=O)[O-])cc1)c1ccc(OC(=O)N(C)C)cc1 | 6.84
45 | CN[C@@H](CCOc1ccc([N+](=O)[O-])cc1)c1ccc(OC(=O)N(C)C)cc1 | 7.00
46 | CN(C)C(=O)Oc1ccc2c(c1)C=CCN[C@@H]2CCOc1ccc([N+](=O)[O-])cc1 | 7.85
47 | CN(C)C(=O)Oc1ccc([C@@H](N)CCOc2ccc([N+](=O)[O-])cc2)cc1 | 7.00

target: Sodium-dependent serotonin transporter (Rattus norvegicus, UniProt P31652); assay: Inhibition of rat synaptosome SERT assessed as reduction in [3H]5-HT uptake; settings: not given
Sequence (P31652 whole entry): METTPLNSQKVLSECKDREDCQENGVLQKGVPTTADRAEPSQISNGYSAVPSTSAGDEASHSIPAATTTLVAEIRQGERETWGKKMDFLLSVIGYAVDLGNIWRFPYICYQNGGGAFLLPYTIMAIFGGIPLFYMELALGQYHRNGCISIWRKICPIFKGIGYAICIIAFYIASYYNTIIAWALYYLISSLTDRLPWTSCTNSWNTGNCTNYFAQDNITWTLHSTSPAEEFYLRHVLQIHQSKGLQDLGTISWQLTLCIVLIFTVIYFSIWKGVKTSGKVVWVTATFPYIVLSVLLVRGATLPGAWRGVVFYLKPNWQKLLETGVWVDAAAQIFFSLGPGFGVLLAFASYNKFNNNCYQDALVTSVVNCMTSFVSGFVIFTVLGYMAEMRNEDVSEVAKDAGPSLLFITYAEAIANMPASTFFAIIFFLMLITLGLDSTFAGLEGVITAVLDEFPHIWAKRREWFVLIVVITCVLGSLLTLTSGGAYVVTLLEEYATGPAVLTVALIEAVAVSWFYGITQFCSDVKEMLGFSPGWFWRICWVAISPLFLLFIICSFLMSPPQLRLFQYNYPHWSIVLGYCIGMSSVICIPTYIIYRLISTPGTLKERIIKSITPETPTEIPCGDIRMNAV

Row | Compound | pIC50
48 | CN(C)C(=O)Oc1ccc2c(c1)C=CCN(C)[C@H]2CCOc1ccc([N+](=O)[O-])cc1 | 6.03
49 | CNC(CCOc1ccc([N+](=O)[O-])cc1)c1ccc(OC(=O)N(C)C)cc1 (racemic) | 7.36
50 | CN[C@H](CCOc1ccc([N+](=O)[O-])cc1)c1ccc(OC(=O)N(C)C)cc1 | 6.87
51 | CN[C@@H](CCOc1ccc([N+](=O)[O-])cc1)c1ccc(OC(=O)N(C)C)cc1 | 7.38
52 | CN(C)C(=O)Oc1ccc2c(c1)C=CCN[C@@H]2CCOc1ccc([N+](=O)[O-])cc1 | 8.22
53 | CN(C)C(=O)Oc1ccc([C@@H](N)CCOc2ccc([N+](=O)[O-])cc2)cc1 | 7.38

target: Butyrylcholinesterase (Rattus norvegicus) (UniProt Q9JKC1); assay: Inhibition of rat serum butyrylcholinesterase using butyrylthiocholine iodide as substrate at 50 uM incubated for 15 mins by Ellman's method relative to control; settings: not given
Sequence (Q9JKC1 as listed by the source): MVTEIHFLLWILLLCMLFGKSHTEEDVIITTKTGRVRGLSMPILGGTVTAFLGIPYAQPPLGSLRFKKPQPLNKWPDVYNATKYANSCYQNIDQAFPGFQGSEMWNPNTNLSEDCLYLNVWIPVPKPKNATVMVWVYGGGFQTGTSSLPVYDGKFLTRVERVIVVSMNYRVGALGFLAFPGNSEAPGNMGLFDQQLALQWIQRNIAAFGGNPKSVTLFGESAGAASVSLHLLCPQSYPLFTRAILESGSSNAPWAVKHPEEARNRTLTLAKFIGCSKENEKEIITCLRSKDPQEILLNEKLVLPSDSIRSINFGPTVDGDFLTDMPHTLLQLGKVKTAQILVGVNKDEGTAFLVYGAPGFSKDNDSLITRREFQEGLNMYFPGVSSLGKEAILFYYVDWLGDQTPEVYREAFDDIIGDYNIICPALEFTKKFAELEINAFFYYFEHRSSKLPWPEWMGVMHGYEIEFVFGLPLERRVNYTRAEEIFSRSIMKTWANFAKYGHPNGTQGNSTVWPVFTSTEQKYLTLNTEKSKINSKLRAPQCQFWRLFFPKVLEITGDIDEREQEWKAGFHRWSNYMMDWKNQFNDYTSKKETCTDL

Row | Compound | inhibition [%]
54 | CCN(CC)Cc1ccc(/C=C/c2cnc(C)c3c2COC(C)(C)O3)cc1O | 8.9

target: Acetylcholinesterase (Electrophorus electricus, UniProt O42275); assay: Inhibition of electric eel AChE using acetylthiocholine iodide as substrate preincubated for 15 mins followed by substrate addition and measured at 1 min intervals by Ellman's method; settings: not given
Sequence (O42275 whole entry): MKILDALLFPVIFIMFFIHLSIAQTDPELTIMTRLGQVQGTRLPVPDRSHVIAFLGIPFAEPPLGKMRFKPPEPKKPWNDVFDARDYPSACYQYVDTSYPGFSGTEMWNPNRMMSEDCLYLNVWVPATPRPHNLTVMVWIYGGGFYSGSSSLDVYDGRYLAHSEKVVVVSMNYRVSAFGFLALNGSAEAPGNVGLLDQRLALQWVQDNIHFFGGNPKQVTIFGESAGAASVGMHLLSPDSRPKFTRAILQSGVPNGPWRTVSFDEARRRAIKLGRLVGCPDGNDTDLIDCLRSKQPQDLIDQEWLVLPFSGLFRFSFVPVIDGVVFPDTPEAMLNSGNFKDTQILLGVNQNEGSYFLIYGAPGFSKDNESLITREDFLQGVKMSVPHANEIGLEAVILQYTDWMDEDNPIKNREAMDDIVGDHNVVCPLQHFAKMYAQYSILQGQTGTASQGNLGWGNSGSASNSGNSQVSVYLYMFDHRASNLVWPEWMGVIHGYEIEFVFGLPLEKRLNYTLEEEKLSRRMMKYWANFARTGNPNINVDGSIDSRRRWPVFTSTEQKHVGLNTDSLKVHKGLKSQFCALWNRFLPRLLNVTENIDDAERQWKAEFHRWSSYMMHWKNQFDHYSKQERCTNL

Row | Compound | pIC50
55 | O=C(/C=C\C(=O)Nc1ccc2c(c1)C(=O)c1cccc3ccnc-2c13)NCCc1c[nH]c2ccc(F)cc12 | 4.83
56 | Cc1ccc2[nH]cc(CCNC(=O)/C=C\C(=O)Nc3ccc4c(c3)C(=O)c3cccc5ccnc-4c35)c2c1 | 5.29
57 | COc1ccc2[nH]cc(CCNC(=O)/C=C\C(=O)Nc3ccc4c(c3)C(=O)c3cccc5ccnc-4c35)c2c1 | 5.21
58 | O=C(/C=C/C(=O)Nc1ccc2c(c1)C(=O)c1cccc3ccnc-2c13)NCCc1c[nH]c2ccc(F)cc12 | 5.63

target: Acetylcholinesterase (Electrophorus electricus) (UniProt O42275); assay: Inhibition of electric eel AChE-induced amyloid beta 1 to 40 (unknown origin) aggregation at 100 uM incubated for 8 hrs by thioflavin-T fluorescence method relative to control; settings: not given
Sequence (O42275 24-633 limits assumed): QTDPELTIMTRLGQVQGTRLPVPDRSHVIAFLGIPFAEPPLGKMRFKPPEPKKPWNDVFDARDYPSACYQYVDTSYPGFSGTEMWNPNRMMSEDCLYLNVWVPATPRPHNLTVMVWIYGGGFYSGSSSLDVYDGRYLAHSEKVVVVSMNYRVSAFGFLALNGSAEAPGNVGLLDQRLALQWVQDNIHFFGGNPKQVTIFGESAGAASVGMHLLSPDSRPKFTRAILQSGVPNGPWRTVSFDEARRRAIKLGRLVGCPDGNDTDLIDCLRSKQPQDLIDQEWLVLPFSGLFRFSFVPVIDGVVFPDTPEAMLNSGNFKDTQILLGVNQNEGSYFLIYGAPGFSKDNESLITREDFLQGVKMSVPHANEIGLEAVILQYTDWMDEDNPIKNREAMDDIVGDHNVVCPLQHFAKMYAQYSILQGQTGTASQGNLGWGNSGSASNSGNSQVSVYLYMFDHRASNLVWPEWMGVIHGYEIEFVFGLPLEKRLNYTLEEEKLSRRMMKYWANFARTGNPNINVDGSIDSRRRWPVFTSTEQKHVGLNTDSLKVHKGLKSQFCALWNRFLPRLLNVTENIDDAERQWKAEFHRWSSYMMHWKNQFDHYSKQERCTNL

Row | Compound | inhibition [%]
59 | O=C(/C=C\C(=O)Nc1ccc2c(c1)C(=O)c1cccc3ccnc-2c13)NCCc1c[nH]c2ccc(F)cc12 | 32.5
60 | Cc1ccc2[nH]cc(CCNC(=O)/C=C\C(=O)Nc3ccc4c(c3)C(=O)c3cccc5ccnc-4c35)c2c1 | 57.7
61 | COc1ccc2[nH]cc(CCNC(=O)/C=C\C(=O)Nc3ccc4c(c3)C(=O)c3cccc5ccnc-4c35)c2c1 | 50.4
62 | O=C(/C=C/C(=O)Nc1ccc2c(c1)C(=O)c1cccc3ccnc-2c13)NCCc1c[nH]c2ccc(F)cc12 | 60.5
